From patent US11161846B2, “Substituted pyrazolo[4,3-b]pyridines and their use as GluN2B receptor modulators” (JANSSEN PHARMACEUTICA NV, priority 2019, dated 2021)

target: T1, human GluN1/GluN2B NMDA receptors (Homo sapiens, UniProt Q05586+Q13224); assay: Calcium flux (FLIPR) assay on cloned human NR1/GluN2B ion channels expressed in mammalian cells, standard assay; assay type: cell-based; conditions: glutamate ~EC40 and 10 μM glycine, stable cell line with Tet-On induced expression
T1 construct: expressed in transfected cells
T1 sequence (Q13224 27-1484, other chains not shown): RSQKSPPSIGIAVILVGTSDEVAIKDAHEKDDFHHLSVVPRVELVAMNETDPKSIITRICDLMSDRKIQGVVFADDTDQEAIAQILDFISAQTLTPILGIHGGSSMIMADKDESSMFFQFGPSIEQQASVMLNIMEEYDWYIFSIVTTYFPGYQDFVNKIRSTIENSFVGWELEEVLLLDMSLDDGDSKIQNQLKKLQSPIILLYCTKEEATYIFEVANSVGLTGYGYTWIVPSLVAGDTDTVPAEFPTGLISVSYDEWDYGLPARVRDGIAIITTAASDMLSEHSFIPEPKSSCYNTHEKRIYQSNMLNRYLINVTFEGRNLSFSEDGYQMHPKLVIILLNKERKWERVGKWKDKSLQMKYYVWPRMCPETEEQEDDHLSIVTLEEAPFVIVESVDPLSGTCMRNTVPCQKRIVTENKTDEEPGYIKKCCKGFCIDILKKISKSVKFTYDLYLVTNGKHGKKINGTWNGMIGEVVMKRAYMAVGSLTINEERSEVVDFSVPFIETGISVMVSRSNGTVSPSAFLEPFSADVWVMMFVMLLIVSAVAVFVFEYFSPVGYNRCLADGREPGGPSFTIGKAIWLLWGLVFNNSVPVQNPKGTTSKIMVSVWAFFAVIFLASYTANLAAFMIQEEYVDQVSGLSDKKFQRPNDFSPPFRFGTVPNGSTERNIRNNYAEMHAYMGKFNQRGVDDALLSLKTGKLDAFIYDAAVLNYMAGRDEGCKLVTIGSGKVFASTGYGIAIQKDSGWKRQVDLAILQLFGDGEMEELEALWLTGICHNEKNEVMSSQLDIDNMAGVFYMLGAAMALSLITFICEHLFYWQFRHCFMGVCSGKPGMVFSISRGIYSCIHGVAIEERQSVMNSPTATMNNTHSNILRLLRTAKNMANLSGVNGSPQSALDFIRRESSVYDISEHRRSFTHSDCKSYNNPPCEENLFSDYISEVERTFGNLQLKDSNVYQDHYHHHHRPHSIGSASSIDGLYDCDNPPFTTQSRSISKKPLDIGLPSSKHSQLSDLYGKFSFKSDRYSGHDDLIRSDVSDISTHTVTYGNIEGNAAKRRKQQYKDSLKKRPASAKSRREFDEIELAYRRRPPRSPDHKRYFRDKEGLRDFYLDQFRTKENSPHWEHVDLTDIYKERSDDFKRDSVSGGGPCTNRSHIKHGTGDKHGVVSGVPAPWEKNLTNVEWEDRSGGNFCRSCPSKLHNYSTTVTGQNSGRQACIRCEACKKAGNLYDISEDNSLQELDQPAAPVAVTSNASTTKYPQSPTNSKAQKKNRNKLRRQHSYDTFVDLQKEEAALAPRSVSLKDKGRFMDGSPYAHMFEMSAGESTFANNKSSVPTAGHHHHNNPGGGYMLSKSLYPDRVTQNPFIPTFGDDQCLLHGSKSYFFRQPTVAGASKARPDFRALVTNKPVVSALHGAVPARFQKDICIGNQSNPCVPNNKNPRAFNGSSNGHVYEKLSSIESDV
Procedure: Effects of Test Articles on Cloned Human NR1/GluN2B Ion Channels Expressed in Mammalian Cells
NMDA receptors are ion channels that are highly permeable to Ca^2+ ions, rendering it possible to monitor NMDA receptor function using cell-based calcium flux assay. In this assay, co-agonists glutamate and glycine are added to cells heterologously expressing human GluN1/GluN2B NMDA receptors to initiate cellular Ca^2+ influx. The time course of the changes in intracellular calcium is measured using a fluorescent dye and a FLIPR (Fluorometric Imaging Plate Reader) device.
Twenty four hours before measurements, the expression of the NMDA receptors in the stable cell line is induced with Tet-On inducible system in the presence of a non-selective NMDA receptor blocker. On the day of the experiment, cell culture media is carefully washed and the cells are loaded with Calcium 5 Dye Kit (Molecular Devices) in dye loading buffer containing 137 mM NaCl, 4 mM KCl, 2 mM CaCl2, 0.5 mM MgCl2 (standard assay) or 1.5 mM MgCl2 (HTS assay), 10 mM HEPES and 5 mM D-glucose; pH 7.4. After 1 h incubation at the room temperature, the dye is washed away with the assay buffer (137 mM NaCl (standard assay) or 150 mM (HTS assay), 4 mM KCl (standard assay) or 3 mM (HTS assay), 2 mM CaC2, 0.01 mM EDTA, 10 mM HEPES and 5 mM D-glucose; pH 7.4) In the FLIPR TETRA reader, various concentrations of the test compounds are added to the cells for 5 min while fluorescence is monitored to detect potential agonist activity. Next, co-agonists, glutamate and glycine are added for another 5 minutes. The concentration of glutamate corresponding to ˜EC40 (standard assay) or EC40 (HTS assay) is used to maximize the assay's signal window and ability to detect NMDA receptor antagonists and negative allosteric modulators. A saturating concentration (10 μM) of glycine is also present in the assay. A non-selective NMDA receptor antagonist, (+)MK-801 is used as a positive control for antagonist activity. The fluorescent signal in the presence of test compounds is quantified and normalized to the signal defined by the appropriate control wells.

| Structure (SMILES) | IC50 [nM] |
| --- | --- |
| Fc1ccc(-c2cnc3cnn(CC4CCCO4)c3c2)cc1C(F)F (racemic) [Example 18, (RS)-6-[3-(Difluoromethyl)-4-fluoro-phenyl]-1-(tetrahydrofuran-2-ylmethyl)pyrazolo[4,3-b]pyridine] | 35 |
| O=C(Cn1ncc2ncc(-c3cccc(C(F)(F)F)c3F)cc21)C1CC1 [Example 73, 1-Cyclopropyl-2-[6-[2-fluoro-3-(trifluoromethyl)phenyl]pyrazolo[4,3-b]pyridin-1-yl]ethanone] | 43 |
| CN1C[C@@H](Cn2ncc3ncc(-c4ccc(F)c(C(F)F)c4)cc32)CC1=O [Example 121, (S)-4-[[6-[3-(Difluoromethyl)-4-fluoro-phenyl]pyrazolo[4,3-b]pyridin-1-yl]methyl]-1-methyl-pyrrolidin-2-one] | 685 |
| O=C(Cn1ncc2ncc(-c3ccc(F)c(C(F)F)c3)cc21)c1ccccn1 [Example 14, 2-[6-[3-(Difluoromethyl)-4-fluoro-phenyl]pyrazolo[4,3-b]pyridin-1-yl]-1-(2-pyridyl)ethanone] | 112 |
| CC[S+]([O-])Cn1ncc2ncc(-c3cccc(C(F)(F)F)c3)cc21 (racemic) [Example 81, (RS)-1-(Ethylsulfinylmethyl)-6-[3-(trifluoromethyl)phenyl]pyrazolo[4,3-b]pyridine] | 128 |
| CCC(=O)Cn1ncc2ncc(-c3ccc(F)cc3)cc21 [Example 28, 1-[6-(4-Fluorophenyl)pyrazolo[4,3-b]pyridin-1-yl]butan-2-one] | 32 |
| O=C(Cn1ncc2ncc(-c3ccc(F)c(C(F)F)c3)cc21)c1ccc(F)cn1 [Example 15, 2-(6-(3-(Difluoromethyl)-4-fluorophenyl)-1H-pyrazolo[4,3-b]pyridin-1-yl)-1-(5-fluoropyridin-2-yl)ethan-1-one] | 160 |
| Cc1cc(-c2cnc3cnn(CC(=O)C(C)C)c3c2)ccc1F [Example 7, 1-[6-(4-Fluoro-3-methyl-phenyl)pyrazolo[4,3-b]pyridin-1-yl]-3-methyl-butan-2-one] | 21 |
| CCN1C[C@H](Cn2ncc3ncc(-c4ccc(F)c(C(F)F)c4)cc32)OC1=O [Example 133, (R)-5-[[6-[3-(Difluoromethyl)-4-fluoro-phenyl]pyrazolo[4,3-b]pyridin-1-yl]methyl]-3-ethyl-oxazolidin-2-one] | 204 |
| O=C1NCC(Cn2ncc3ncc(-c4ccc(F)c(OC(F)F)c4)cc32)O1 (racemic) [Example 125, (RS)-5-[[6-[3-(Difluoromethoxy)-4-fluoro-phenyl]pyrazolo[4,3-b]pyridin-1-yl]methyl]oxazolidin-2-one] | 498 |
| O=C(Cn1ncc2ncc(-c3ccc(F)c(C(F)F)c3)cc21)c1ccncc1 [Example 139, 2-[6-[3-(Difluoromethyl)-4-fluoro-phenyl]pyrazolo[4,3-b]pyridin-1-yl]-1-(4-pyridyl)ethanone] | 118 |
| OC(Cn1ncc2ncc(-c3cc(F)c(F)c(F)c3)cc21)C1CC1 (racemic) [Example 10, (R/S)-1-Cyclopropyl-2-[6-(3,4,5-trifluorophenyl)pyrazolo[4,3-b]pyridin-1-yl]ethanol] | 696 |
| O=C(Cn1ncc2ncc(-c3ccc(Cl)c(C(F)(F)F)c3)cc21)C1CC1 [Example 75, 2-[6-[4-Chloro-3-(trifluoromethyl)phenyl]pyrazolo[4,3-b]pyridin-1-yl]-1-cyclopropyl-ethanone] | 76 |
| COCCC(O)Cn1ncc2ncc(-c3cccc(C(F)(F)F)c3)cc21 (racemic) [Example 90, (RS)-4-Methoxy-1-[6-[3-(trifluoromethyl)phenyl]pyrazolo[4,3-b]pyridin-1-yl]butan-2-ol] | 1420 |
| CCC(=O)Cn1ncc2ncc(-c3ccc(Cl)c(OC(F)F)c3)cc21 [Example 41, 1-[6-[4-Chloro-3-(difluoromethoxy)phenyl]pyrazolo[4,3-b]pyridin-1-yl]butan-2-one] | 21 |
| CC(=O)Cn1ncc2ncc(-c3ccc(F)c(C)c3)cc21 [Example 24, 1-[6-(4-Fluoro-3-methyl-phenyl)pyrazolo[4,3-b]pyridin-1-yl]propan-2-one] | 15 |
| CC[S+]([O-])Cn1ncc2ncc(-c3ccc(F)c(OC(F)F)c3)cc21 (racemic) [Example 12, (RS)-6-[3-(Difluoromethoxy)-4-fluoro-phenyl]-1-(ethylsulfinylmethyl)pyrazolo[4,3-b]pyridine] | 146 |

| Structure (SMILES) | IC50 [nM] |
| --- | --- |
| O=C1NCC(Cn2ncc3ncc(-c4ccc(Cl)c(OC(F)F)c4)cc32)O1 (racemic) [Example 126, (RS)-5-[[6-[4-Chloro-3-(difluoromethoxy)phenyl]pyrazolo[4,3-b]pyridin-1-yl]methyl]oxazolidin-2-one] | 306 |
| Fc1ccc(-c2cnc3cnn(CC(F)(F)C4CC4)c3c2)cc1C(F)F [Example 108, 1-(2-Cyclopropyl-2,2-difluoro-ethyl)-6-[3-(difluoromethyl)-4-fluoro-phenyl]pyrazolo[4,3-b]pyridine] | 45 |
| O=C(Cn1ncc2ncc(-c3ccc(F)c(C(F)F)c3)cc21)c1ncccc1F [Example 140, 2-(6-(3-(Difluoromethyl)-4-fluorophenyl)-1H-pyrazolo[4,3-b]pyridin-1-yl)-1-(3-fluoropyridin-2-yl)ethan-1-one] | 191 |
| O=C(Cn1ncc2ncc(-c3ccccc3F)cc21)C1CC1 [Example 58, 1-Cyclopropyl-2-[6-(2-fluorophenyl)pyrazolo[4,3-b]pyridin-1-yl]ethanone] | 148 |
| Cc1cccc(-c2cnc3cnn(CC(=O)C4CC4)c3c2)c1 [Example 60, 1-Cyclopropyl-2-[6-(m-tolyl)pyrazolo[4,3-b]pyridin-1-yl]ethanone] | 8 |
| OC(Cn1ncc2ncc(-c3cccc(C(F)(F)F)c3)cc21)C1CC1 (racemic) [Example 100, (RS)-1-Cyclopropyl-2-[6-[3-(trifluoromethyl)phenyl]pyrazolo[4,3-b]pyridin-1-yl]ethanol] | 290 |
| CC1(Cn2ncc3ncc(-c4ccc(F)c(C(F)F)c4)cc32)COC1 [Example 110, 6-[3-(Difluoromethyl)-4-fluoro-phenyl]-1-[(3-methyloxetan-3-yl)methyl]pyrazolo[4,3-b]pyridine] | 2060 |
| CN1CCC(Cn2ncc3ncc(-c4ccc(F)c(OC(F)F)c4)cc32)C1=O (racemic) [Example 119, (RS)-3-((6-(3-(Difluoromethoxy)-4-fluorophenyl)-1H-pyrazolo[4,3-b]pyridin-1-yl)methyl)-1-methylpyrrolidin-2-one] | 352 |
| O=C(Cn1ncc2ncc(-c3cccc(F)c3)cc21)C1CC1 [Example 57, 1-Cyclopropyl-2-[6-(3-fluorophenyl)pyrazolo[4,3-b]pyridin-1-yl]ethanone] | 26 |
| CN1C[C@H](Cn2ncc3ncc(-c4ccc(F)c(C(F)F)c4)cc32)CC1=O [Example 122, (R)-4-[[6-[3-(Difluoromethyl)-4-fluoro-phenyl]pyrazolo[4,3-b]pyridin-1-yl]methyl]-1-methyl-pyrrolidin-2-one] | 120 |
| CCC(=O)Cn1ncc2ncc(-c3cccc(C(F)F)c3)cc21 [Example 30, 1-[6-[3-(Difluoromethyl)phenyl]pyrazolo[4,3-b]pyridin-1-yl]butan-2-one] | 27 |
| Cc1cc(-c2cnc3cnn(CC(O)C(C)C)c3c2)ccc1F (racemic) [Example 8, (RS)-1-[6-(4-Fluoro-3-methyl-phenyl)pyrazolo[4,3-b]pyridin-1-yl]-3-methyl-butan-2-ol] | 222 |
| CCC(=O)Cn1ncc2ncc(-c3ccc(F)c(OC(F)F)c3)cc21 [Example 40, 1-[6-[3-(Difluoromethoxy)-4-fluoro-phenyl]pyrazolo[4,3-b]pyridin-1-yl]butan-2-one] | 11 |
| O=C1NC[C@H](Cn2ncc3ncc(-c4ccc(F)c(C(F)F)c4)cc32)O1 [Example 22, (R)-5-[[6-[3-(Difluoromethyl)-4-fluoro-phenyl]pyrazolo[4,3-b]pyridin-1-yl]methyl]oxazolidin-2-one] | 187 |
| CN1CC(Cn2ncc3ncc(-c4ccc(F)c(OC(F)F)c4)cc32)CC1=O (racemic) [Example 19, (RS)-4-[[6-[3-(Difluoromethoxy)-4-fluoro-phenyl]pyrazolo[4,3-b]pyridin-1-yl]methyl]-1-methyl-pyrrolidin-2-one] | 992 |
| CN1C[C@@H](Cn2ncc3ncc(-c4ccc(F)c(C(F)F)c4)cc32)OC1=O [Example 130, (5S)-5-[[6-[3-(Difluoromethyl)-4-fluoro-phenyl]pyrazolo[4,3-b]pyridin-1-yl]methyl]-3-methyl-oxazolidin-2-one] | 478 |
| FC(F)(F)c1cccc(-c2cnc3cnn(CC4CCO4)c3c2)c1 (racemic) [Example 17, (RS)-1-(Oxetan-2-ylmethyl)-6-[3-(trifluoromethyl)phenyl]pyrazolo[4,3-b]pyridine] | 85 |
